Data as given in patent US11053204B2, “Pyrimidinyloxy benzene derivatives as herbicides” (FMC Corporation, priority 2015, dated 2021).

Tests used:
Format in all cases: in vivo
[1] = system: barnyardgrass (Echinochloa crus-galli); assay: Test A preemergence, visual injury rating; settings: for Barnyardgrass plant response rating: 0 to 100 scale (0 no effect, 100 complete control)
Outline: (§1)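 Greenhouse pot test, loam/sand soil. Formulation: non-phytotoxic solvent mix plus surfactant. Pre: directed spray onto soil after sowing. Post: plants at 1–2 leaf, 2–10 cm. Rated visually vs untreated controls at ~10 d, 0 (no effect) to 100 (complete control).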

[2] = system: ragweed (common ragweed, Ambrosia elatior); assay: Test A preemergence, visual injury rating; settings: for Ragweed plant response rating: 0 to 100 scale (0 no effect, 100 complete control)
Outline: as §1

[3] = system: pigweed (Amaranthus retroflexus); assay: Test A preemergence, visual injury rating; settings: for Pigweed plant response rating: 0 to 100 scale (0 no effect, 100 complete control)
Outline: as §1

[4] = system: Italian ryegrass (Lolium multiflorum); assay: Test A preemergence, visual injury rating; settings: for Ryegrass, Italian plant response rating: 0 to 100 scale (0 no effect, 100 complete control)
Outline: as §1

[5] = system: giant foxtail (Setaria faberii); assay: Test A preemergence, visual injury rating; settings: for Foxtail, Giant plant response rating: 0 to 100 scale (0 no effect, 100 complete control)
Outline: as §1

kochia (Kochia scoparia) [6] = assay: Test A preemergence, visual injury rating; settings: for Kochia plant response rating: 0 to 100 scale (0 no effect, 100 complete control)
Outline: as §1

[7] = system: barnyardgrass (Echinochloa crus-galli); assay: Test A postemergence, visual injury rating; settings: 0 is no effect, 100 is complete control
Outline: as §1

[8] = system: ragweed (common ragweed, Ambrosia elatior); assay: Test A postemergence, visual injury rating; settings: 0 is no effect, 100 is complete control
Outline: as §1

[9] = system: blackgrass (Alopecurus myosuroides); assay: Test A postemergence, visual injury rating; settings: 0 is no effect, 100 is complete control
Outline: as §1

[10] = system: wheat (Triticum aestivum); assay: Test A postemergence, visual injury rating; settings: 0 is no effect, 100 is complete control
Outline: as §1

[11] = system: pigweed (Amaranthus retroflexus); assay: Test A postemergence, visual injury rating; settings: 0 is no effect, 100 is complete control
Outline: as §1

[12] = system: Italian ryegrass (Lolium multiflorum); assay: Test A postemergence, visual injury rating; settings: 0 is no effect, 100 is complete control
Outline: as §1

corn (Zea mays) = assay: Test A postemergence, visual injury rating; settings: 0 is no effect, 100 is complete control
Outline: as §1

[13] = system: giant foxtail (Setaria faberii); assay: Test A postemergence, visual injury rating; settings: 0 is no effect, 100 is complete control
Outline: as §1

[14] = system: galium (catchweed bedstraw, Galium aparine); assay: Test A postemergence, visual injury rating; settings: 0 is no effect, 100 is complete control
Outline: as §1

kochia (Kochia scoparia) [15] = assay: Test A postemergence, visual injury rating; settings: 0 is no effect, 100 is complete control
Outline: as §1

[16] = system: barnyardgrass (Echinochloa crus-galli); assay: Test B flooded paddy test, plant response rating; settings: 250 g ai/ha; Flood; scale of 0 to 100 where 0 is no effect and 100 is complete control; 13 to 15 days
Outline: (§2)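 Ratings were visual and made relative to untreated controls after 13 to 15 greenhouse days.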

[17] = system: sedge, umbrella (small-flower umbrella sedge, Cyperus difformis); assay: Test B flooded paddy test, plant response rating; settings: 250 g ai/ha; Flood; scale of 0 to 100 where 0 is no effect and 100 is complete control; 13 to 15 days
Outline: as §2

[18] = system: ducksalad (Heteranthera limosa); assay: Test B flooded paddy test, plant response rating; settings: 250 g ai/ha; Flood; scale of 0 to 100 where 0 is no effect and 100 is complete control; 13 to 15 days
Outline: as §2

rice (Oryza sativa) = assay: Test B flooded paddy test, plant response rating; settings: 250 g ai/ha; Flood; scale of 0 to 100 where 0 is no effect and 100 is complete control; 13 to 15 days
Outline: as §2

[19] = 31 g ai/ha, 0 to 100 scale, 0 no effect, 100 complete control
[20] = 31 g ai/ha, 0 to 100 scale, approximately 10 days

| SMILES | Barnyardgrass plant response rating ([1]; 125 g ai/ha) | Ragweed plant response rating ([2]; 125 g ai/ha) | Pigweed plant response rating ([3]; 125 g ai/ha) | Ryegrass, Italian plant response rating ([4]; 125 g ai/ha) | Foxtail, Giant plant response rating ([5]; 125 g ai/ha) | Kochia plant response rating (kochia (Kochia scoparia) [6]; 125 g ai/ha) | Barnyardgrass plant response rating (0 to 100 scale) ([7]; 125 g ai/ha) | Ragweed plant response rating (0 to 100 scale) ([8]; 125 g ai/ha) | Blackgrass plant response rating (0 to 100 scale) ([9]; 125 g ai/ha) | Wheat plant response rating (0 to 100 scale) ([10]; 125 g ai/ha) | Pigweed plant response rating (0 to 100 scale) ([11]; 125 g ai/ha) | Ryegrass, Italian plant response rating (0 to 100 scale) ([12]; 125 g ai/ha) | Corn plant response rating (0 to 100 scale) (corn (Zea mays); 125 g ai/ha) | Foxtail, Giant plant response rating (0 to 100 scale) ([13]; 125 g ai/ha) | Galium plant response rating (0 to 100 scale) ([14]; 125 g ai/ha) | Kochia plant response rating (0 to 100 scale) (kochia (Kochia scoparia) [15]; 125 g ai/ha) | Plant response rating, Barnyardgrass [16] | Plant response rating, Sedge, Umbrella [17] | Plant response rating, Ducksalad [18] | Plant response rating, Rice (rice (Oryza sativa)) | also measured |
| --- | --- | --- | --- | --- | --- | --- | --- | --- | --- | --- | --- | --- | --- | --- | --- | --- | --- | --- | --- | --- | --- |
| C=C(C)COC(=O)c1c(Br)cccc1Oc1ncc(Cl)cn1 [Compound 3] | 80 | 0 | 100 | 30 | 100 | 40 | 60 | 0 | 30 | 0 | 100 | 30 | 30 | 80 | 70 | 40 | 0 | 100 | 30 | 0 | Plant response rating, Barnyardgrass [1, 19]: 60; Plant response rating, Ragweed [2, 19]: 0; Plant response rating, Pigweed [3, 19]: 50; Plant response rating, Ryegrass, Italian [4, 19]: 0; Plant response rating, Foxtail, Giant [5, 19]: 70; Plant response rating, Kochia (kochia (Kochia scoparia) [6]; [19]): 0; Barnyardgrass plant response rating [7, 20]: 20; Ragweed plant response rating [8, 20]: 0; Blackgrass plant response rating [9, 20]: 0; Wheat plant response rating [10, 20]: 0; Pigweed plant response rating [11, 20]: 70; Ryegrass, Italian plant response rating [12, 20]: 0; Corn plant response rating (corn (Zea mays); [20]): 0; Foxtail, Giant plant response rating [13, 20]: 30; Galium plant response rating [14, 20]: 40; Kochia plant response rating (kochia (Kochia scoparia) [15]; [20]): 0 |
| CC(C)=CCOC(=O)c1c(Br)cccc1Oc1ncc(Cl)cn1 [Compound 11] | 0 | 0 | 0 | 0 | 40 | 0 | 10 | 0 | 0 | 0 | 10 | 0 | 0 | 20 | 10 | 0 | 0 | 0 | 0 | 0 | Barnyardgrass plant response rating ([1]; 500 g ai/ha): 30; Ragweed plant response rating ([2]; 500 g ai/ha): 0; Pigweed plant response rating ([3]; 500 g ai/ha): 20; Ryegrass, Italian plant response rating ([4]; 500 g ai/ha): 0; Foxtail, Giant plant response rating ([5]; 500 g ai/ha): 100; Kochia plant response rating (kochia (Kochia scoparia) [6]; 500 g ai/ha): 0; Barnyardgrass plant response rating (0 to 100 scale) ([7]; 500 g ai/ha): 20; Ragweed plant response rating (0 to 100 scale) ([8]; 500 g ai/ha): 0; Blackgrass plant response rating (0 to 100 scale) ([9]; 500 g ai/ha): 20; Wheat plant response rating (0 to 100 scale) ([10]; 500 g ai/ha): 0; Pigweed plant response rating (0 to 100 scale) ([11]; 500 g ai/ha): 60; Ryegrass, Italian plant response rating (0 to 100 scale) ([12]; 500 g ai/ha): 0; Corn plant response rating (0 to 100 scale) (corn (Zea mays); 500 g ai/ha): 10; Foxtail, Giant plant response rating (0 to 100 scale) ([13]; 500 g ai/ha): 20; Galium plant response rating (0 to 100 scale) ([14]; 500 g ai/ha): 20; Kochia plant response rating (0 to 100 scale) (kochia (Kochia scoparia) [15]; 500 g ai/ha): 40 |
